These results are taken from patent US20070054348A1, “Methods of screening bifunctional molecules for modulated pharmacokinetic properties” (priority 2005, published 2007).

In series [1] the target is CYP3A4 (Homo sapiens, UniProt P08684). As for the experimental part:
Both the curcumin-FK506 and TZDM-SLF bifunctional compounds include a ligand to the pertidyl-prolyl isomerase FKBP. Therefore, FKBP12 was used in the assay as the PMP. A control was also performed with FK506 in the presence and absence of FKBP12.
The coding sequence of human FKBP12 was subcloned into a pGEX2t vector. Bacteria transformed with this vector produce a fusion protein between FKBP12 and glutathione S-transferase (GST). FKBP12 is purified by standard methods and the GST tag enzymatically removed. Pure FKBP was flash-frozen, and stored at −80° C. at 10-100 micromolar in HEPES or phosphate buffer pH 7.0.
The CYP3A4 compound and the green substrate VIVID® DBOMF (Invitrogen) were used in the assay with the recombinant human FKBP12 (rhFKBP12) and one of the bifunctional compounds. […] Increasing concentrations of the bifunctional compound, curcumin-FK506, were added to this system, either in the presence (open symbols) or absence (closed symbols) of rhFKBP12 at one micromolar.
However, it has never been tested in an in vitro screen. Therefore, rhFKBP12 and FK506 were added to the VIVID assay. The open symbols are FK506+FKBP and the filled symbols are FK506 alone.

For series [2] the following is noted: stated as known; cited from earlier work.
Series [3] has as its system COS-1 cells. The experiment in a line: Fluorescence microscopy of cellular distribution in cultured COS-1 cells. Type of series: cell-based. The settings on record: FIG. 3. As for the experimental part: Cellular and tissue distribution of a bifunctional molecule consisting of a FKBP-binding group was also assessed. Such re-distribution is due to changes in the physicochemical characteristics of the new molecule and also is driven by specific, high-affinity interactions with FKBP. For example, the distribution of TZDM and TZDM-SLF were studied in cultured COS-1 cells (see FIG. 3). The intrinsic fluorescence of TZDM was used was a convenient handle for following drug distribution. […] Thus, sequestering FKBP-binding drugs both reduces accessibility to P450 enzymes and also alters the distribution of the bifunctional compounds.

The target of series [4] is T1, cytochrome p450 3A4 (CYP3A4) (Homo sapiens, UniProt P08684).
T1 construct: purchased Invitrogen
Nature of the series: Cytochrome P450 susceptibility assay using whole cells (FKBP-expressing CHO cells in the VIVID assay). Format: in vitro ADME. As to conditions: FKBP-expressing Chinese hamster ovary cells (CHO) added, FIG. 4. As for the experimental part: In addition to using rhFKBP12 or other recombinant proteins, whole cells were also tested using the cytochrome P450 assay platform. […] Unconjugated curcumin (triangle) was used as a negative control.

Sequence of CYP3A4 (P08684 whole entry): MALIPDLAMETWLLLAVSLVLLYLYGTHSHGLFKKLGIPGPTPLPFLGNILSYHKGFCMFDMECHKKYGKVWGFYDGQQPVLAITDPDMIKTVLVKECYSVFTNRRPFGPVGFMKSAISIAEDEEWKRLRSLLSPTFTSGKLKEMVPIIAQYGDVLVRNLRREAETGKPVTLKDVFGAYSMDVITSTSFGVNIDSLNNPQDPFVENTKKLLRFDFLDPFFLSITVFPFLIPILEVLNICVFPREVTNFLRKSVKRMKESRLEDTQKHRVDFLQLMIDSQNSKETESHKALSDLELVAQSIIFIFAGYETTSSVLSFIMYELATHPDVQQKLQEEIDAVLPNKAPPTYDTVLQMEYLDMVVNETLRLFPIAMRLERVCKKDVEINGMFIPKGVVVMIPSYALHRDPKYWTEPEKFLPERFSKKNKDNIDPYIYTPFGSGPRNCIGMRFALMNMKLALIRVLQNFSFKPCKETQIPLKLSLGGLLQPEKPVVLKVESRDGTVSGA
T1 sequence (P08684 whole entry): as above

For the compound `C=CC[C@@H]1/C=C(\C)C[C@H](C)C[C@H](OC)[C@H]2O[C@@](O)(C(=O)C(=O)N3CCCC[C@H]3C(=O)O[C@H](/C(C)=C/[C@@H]3CC[C@@H](O)[C@H](OC)C3)[C@H](C)[C@@H](O)CC1=O)[C@H](C)C[C@@H]2OC` [FK506], in series [1] (human), the “protection from metabolism by CYP on binding the protein partner FKBP” value is “protected from P450 metabolism by the presence of the protein partner”. The “protection from degradation in whole animals” value in series [2] is listed as “known to be protected from degradation in whole animals”.
Take `CN(C)c1ccc(-c2nc3ccc(I)cc3s2)cc1` [TZDM]: the “cellular distribution by intrinsic fluorescence” value in series [3] is “resides in membranes”.
Regarding `COc1cc(/C=C/C(=O)C(C(=O)/C=C/c2ccc(O)c(OC)c2)c2ccc(NC(=O)OCC[C@@H]3/C=C(\C)C[C@H](C)C[C@H](OC)[C@H]4O[C@@](O)(C(=O)C(=O)N5CCCC[C@H]5C(=O)OC(/C(C)=C/[C@@H]5CC[C@@H](O)[C@H](OC)C5)[C@H](C)C(O)CC3=O)[C@H](C)C[C@@H]4OC)cc2)ccc1O` (stereo partly drawn) [curcumin-FK506], in series [1], the “fluorescence of the reaction in the presence of rhFKBP12 compared to the reaction lacking rhFKBP12” value was “higher”. Moreover, the “protection from P450 metabolism by addition of FKBP-expressing cells” value in series [4] is given as “protected by addition of the FKBP-expressing cells”.
Turning to `COc1cc(/C=C/C(=O)CC(=O)/C=C/c2ccc(O)c(OC)c2)ccc1O` [curcumin], the “protection from P450 metabolism by addition of FKBP-expressing cells” value in series [4] is “less protected”.
